Assay results: PMC9265530, “The Three Two-Pore Channel Subtypes from Rabbit Exhibit Distinct Sensitivity to Phosphoinositides, Voltage, and Extracytosolic pH” (Cells, 2022)

Experiments:
[1] = molecular target: T1, OcTPC2 (Oryctolagus cuniculus, UniProt Z9ZIB8IF81); assay: whole-endolysosome patch clamp, current at -100 mV; assay type: biochemical; conditions: inhibitor; against 100 nM PI(3,5)P2; voltage ramps
T1 construct: full-length, C-terminal EGFP fusion (pEGFP-N1), transient in HEK293; cloned from rabbit kidney RNA; 749/753 residues match GBCT01193833.1; dimer

[2] = molecular target: T2, OcTPC3 (Oryctolagus cuniculus, UniProt B8Q2W0); assay: inside-out patch clamp, tail current at […] mV after +[…] mV step; assay type: biochemical; conditions: agonist; relative to 1 µM PI(3,5)P2; 4-s step to +100 mV; pH 7.2
T2 construct: gene TPCN3; C-terminal EGFP fusion (pEGFP-N1), transient in HEK293; previously cloned cDNA; dimer
T2 sequence (B8Q2W0 1-766): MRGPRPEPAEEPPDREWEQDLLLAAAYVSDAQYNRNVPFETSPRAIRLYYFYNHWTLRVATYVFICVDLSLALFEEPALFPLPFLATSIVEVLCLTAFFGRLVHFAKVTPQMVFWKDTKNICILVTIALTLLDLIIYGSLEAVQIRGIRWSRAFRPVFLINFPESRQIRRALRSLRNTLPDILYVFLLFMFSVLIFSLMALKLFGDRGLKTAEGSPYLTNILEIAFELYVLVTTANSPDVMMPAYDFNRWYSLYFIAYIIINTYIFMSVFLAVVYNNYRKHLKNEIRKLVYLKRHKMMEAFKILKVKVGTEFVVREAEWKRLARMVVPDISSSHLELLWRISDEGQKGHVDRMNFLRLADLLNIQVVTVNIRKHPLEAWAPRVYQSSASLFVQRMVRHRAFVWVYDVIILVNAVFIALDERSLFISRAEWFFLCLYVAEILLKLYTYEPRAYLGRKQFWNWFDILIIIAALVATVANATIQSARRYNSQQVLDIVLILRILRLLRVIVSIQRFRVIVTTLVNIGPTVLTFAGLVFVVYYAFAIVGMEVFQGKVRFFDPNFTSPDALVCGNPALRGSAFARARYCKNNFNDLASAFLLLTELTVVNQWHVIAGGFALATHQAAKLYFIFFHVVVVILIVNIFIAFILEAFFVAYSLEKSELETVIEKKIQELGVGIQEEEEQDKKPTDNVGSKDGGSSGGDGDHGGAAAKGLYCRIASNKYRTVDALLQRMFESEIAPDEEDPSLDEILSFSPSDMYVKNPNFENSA

[3] = tested on: T3, OcTPC1; assay: inside-out patch clamp, current at -100 mV; assay type: cell-based, Oryctolagus cuniculus; conditions: agonist; voltage ramps; cytoplasmic pH 7.2; room temperature; HEK293
T3 construct: gene TPCN1; full-length, C-terminal EGFP fusion (pEGFP-N1), transient in HEK293; cloned from rabbit kidney RNA; 815/817 residues match XM_017349553.1; dimer

[4] = molecular target: T1, OcTPC2; assay: whole-endolysosome patch clamp, current at -100 mV; assay type: cell-based; conditions: agonist; voltage ramps; vacuolin-1 enlarged vacuoles; cytoplasmic pH 7.2; room temperature; HEK293
[5] = molecular target: T2, OcTPC3; assay: inside-out patch clamp, tail current at […] mV after +[…] mV step; assay type: cell-based

Structure (SMILES)	% of PI(3,5)P2 response at 1 μM [2] [%]	other results
CCCCCCCC(=O)OC[C@H](COP(=O)(O)O[C@@H]1[C@H](O)[C@H](O)[C@@H](OP(=O)(O)O)[C@H](OP(=O)(O)O)[C@H]1O)OC(=O)CCCCCCC [PI(4,5)P2]	9.0 ± 2.0	% inhibition at 1 μM [1]: 67.6 ± 5.3%
CCCCCCCC(=O)OC[C@H](COP(=O)(O)O[C@@H]1[C@H](O)[C@H](OP(=O)(O)O)[C@@H](O)[C@H](OP(=O)(O)O)[C@H]1O)OC(=O)CCCCCCC [diC8 PI(3,5)P2]		EC50 [3]: 26.3 ± 5 nM; EC50 [4]: 208 ± 8.1 nM; EC50 [5]: 142 ± 0.2 nM
CCCCCCCC(=O)OC[C@H](COP(=O)(O)O[C@H]1[C@H](O)[C@@H](OP(=O)(O)O)[C@H](OP(=O)(O)O)[C@@H](OP(=O)(O)O)[C@H]1O)OC(=O)CCCCCCC [PI(3,4,5)P3]	7.0 ± 2.0	
CCCCCCCC(=O)OC[C@H](COP(=O)(O)O[C@H]1[C@H](O)[C@@H](O)[C@H](OP(=O)(O)O)[C@@H](OP(=O)(O)O)[C@H]1O)OC(=O)CCCCCCC [PI(3,4)P2]	29.9 ± 5.2	
CCCCCCCC(=O)OC[C@H](COP(=O)(O)O[C@@H]1[C@H](O)[C@H](OP(=O)(O)O)[C@@H](O)[C@H](O)[C@H]1O)OC(=O)CCCCCCC [PI3P]	93.8 ± 5.1	
